Assay results taken from the NIST ThermoML archive (doi:10.1016/j.jct.2011.09.028).
± gives the expanded uncertainty stated by the source.

Legend:
[1] = activity coefficient (dimensionless); of the first substance listed, at infinite dilution; xn = mol fraction of the nth substance listed; conditions: 101 kPa, Liquid, Chromatography, x1 = 0
[2] = 101.33 kPa, Liquid, Vibrating tube method

Compound	activity coefficient ([1]; 318.15 K)	activity coefficient ([1]; 323.15 K)	activity coefficient ([1]; 333.15 K)	activity coefficient ([1]; 343.15 K)	activity coefficient ([1]; 353.15 K)	mass density ([2]; 288.15 K)	mass density ([2]; 293.15 K)	mass density ([2]; 298.15 K)	mass density ([2]; 303.15 K)	mass density ([2]; 308.15 K)	mass density ([2]; 313.15 K)	mass density ([2]; 318.15 K)
CC1CCCCC1 [methylcyclohexane] + CCn1cc[n+](C)c1.N#C[B-](C#N)(C#N)C#N	20.4 ± 1.1	19.7 ± 1	18.4 ± 1	17.2 ± 0.9	16.3 ± 0.8	–	–	–	–	–	–	–
C=CCCCCCC [oct-1-ene] + CCn1cc[n+](C)c1.N#C[B-](C#N)(C#N)C#N	28.8 ± 1.5	27.8 ± 1.4	26.1 ± 1.4	24.6 ± 1.3	23.3 ± 1.2	–	–	–	–	–	–	–
CCc1ccccc1 [ethylbenzene] + CCn1cc[n+](C)c1.N#C[B-](C#N)(C#N)C#N	2.62 ± 0.13	2.61 ± 0.13	2.61 ± 0.13	2.61 ± 0.13	2.61 ± 0.13	–	–	–	–	–	–	–
CCC1CCCCC1 [ethylcyclohexane] + CCn1cc[n+](C)c1.N#C[B-](C#N)(C#N)C#N	318 ± 17	323 ± 17	333 ± 17	343 ± 18	353 ± 18	–	–	–	–	–	–	–
CC(C)O [propan-2-ol] + CCn1cc[n+](C)c1.N#C[B-](C#N)(C#N)C#N	1.63 ± 0.08	1.56 ± 0.08	1.43 ± 0.07	1.32 ± 0.06	1.23 ± 0.06	–	–	–	–	–	–	–
c1ccsc1 [thiophene] + CCn1cc[n+](C)c1.N#C[B-](C#N)(C#N)C#N	0.942 ± 0.042	0.947 ± 0.042	0.957 ± 0.042	0.967 ± 0.043	0.978 ± 0.043	–	–	–	–	–	–	–
c1ccccc1 [benzene] + CCn1cc[n+](C)c1.N#C[B-](C#N)(C#N)C#N	1.15 ± 0.05	1.15 ± 0.05	1.17 ± 0.05	1.18 ± 0.05	1.19 ± 0.05	–	–	–	–	–	–	–
CCCCCCCC [octane] + CCn1cc[n+](C)c1.N#C[B-](C#N)(C#N)C#N	64.2 ± 3.3	61.2 ± 3.2	55.8 ± 2.9	51 ± 2.7	47 ± 2.4	–	–	–	–	–	–	–
CCn1cc[n+](C)c1.N#C[B-](C#N)(C#N)C#N [1-ethyl-3-methylimidazolium tetracyanoborate]	–	–	–	–	–	1044.44 ± 0.26 kg/m3	1040.43 ± 0.26 kg/m3	1036.44 ± 0.26 kg/m3	1032.47 ± 0.26 kg/m3	1028.54 ± 0.25 kg/m3	1024.64 ± 0.25 kg/m3	1020.76 ± 0.25 kg/m3
CC(C)=O [acetone] + CCn1cc[n+](C)c1.N#C[B-](C#N)(C#N)C#N	0.437 ± 0.029	0.443 ± 0.03	0.454 ± 0.03	0.466 ± 0.03	0.479 ± 0.03	–	–	–	–	–	–	–
Cc1cccc(C)c1 [1,3-dimethylbenzene] + CCn1cc[n+](C)c1.N#C[B-](C#N)(C#N)C#N	2.62 ± 0.13	2.62 ± 0.13	2.63 ± 0.13	2.63 ± 0.13	2.64 ± 0.14	–	–	–	–	–	–	–
CCO [ethanol] + CCn1cc[n+](C)c1.N#C[B-](C#N)(C#N)C#N	1.3 ± 0.06	1.25 ± 0.06	1.15 ± 0.05	1.07 ± 0.05	1 ± 0.04	–	–	–	–	–	–	–
COC(=O)OC [dimethyl carbonate] + CCn1cc[n+](C)c1.N#C[B-](C#N)(C#N)C#N	0.528 ± 0.031	0.535 ± 0.031	0.549 ± 0.031	0.563 ± 0.032	0.576 ± 0.032	–	–	–	–	–	–	–
CC(C)OC(C)C [diisopropyl ether] + CCn1cc[n+](C)c1.N#C[B-](C#N)(C#N)C#N	7.07 ± 0.36	7.08 ± 0.36	7.1 ± 0.37	7.11 ± 0.37	7.13 ± 0.37	–	–	–	–	–	–	–
CCCCCCC [heptane] + CCn1cc[n+](C)c1.N#C[B-](C#N)(C#N)C#N	42.4 ± 2.2	40.7 ± 2.1	37.5 ± 1.9	34.8 ± 1.8	32.3 ± 1.7	–	–	–	–	–	–	–
Cc1ccccc1 [toluene] + CCn1cc[n+](C)c1.N#C[B-](C#N)(C#N)C#N	1.68 ± 0.08	1.69 ± 0.08	1.71 ± 0.09	1.72 ± 0.09	1.74 ± 0.09	–	–	–	–	–	–	–

Compound	activity coefficient ([1]; 318.15 K)	activity coefficient ([1]; 323.15 K)	activity coefficient ([1]; 333.15 K)	activity coefficient ([1]; 343.15 K)	activity coefficient ([1]; 353.15 K)	mass density ([2]; 288.15 K)	mass density ([2]; 293.15 K)	mass density ([2]; 298.15 K)	mass density ([2]; 303.15 K)	mass density ([2]; 308.15 K)	mass density ([2]; 313.15 K)	mass density ([2]; 318.15 K)
CCOC(C)=O [ethyl acetate] + CCn1cc[n+](C)c1.N#C[B-](C#N)(C#N)C#N	0.989 ± 0.043	1 ± 0.04	1.02 ± 0.05	1.04 ± 0.05	1.06 ± 0.05	–	–	–	–	–	–	–
CO [methanol] + CCn1cc[n+](C)c1.N#C[B-](C#N)(C#N)C#N	0.917 ± 0.041	0.89 ± 0.04	0.84 ± 0.039	0.795 ± 0.038	0.755 ± 0.036	–	–	–	–	–	–	–
FC(F)(F)C(Cl)Br (configuration not stated) [1-bromo-1-chloro-2,2,2-trifluoroethane] + CCn1cc[n+](C)c1.N#C[B-](C#N)(C#N)C#N	1.16 ± 0.05	1.19 ± 0.05	1.28 ± 0.06	1.34 ± 0.06	1.41 ± 0.07	–	–	–	–	–	–	–
CCCO [propan-1-ol] + CCn1cc[n+](C)c1.N#C[B-](C#N)(C#N)C#N	1.62 ± 0.08	1.55 ± 0.08	1.42 ± 0.07	1.31 ± 0.06	1.22 ± 0.06	–	–	–	–	–	–	–
CCC(C)=O [butanone] + CCn1cc[n+](C)c1.N#C[B-](C#N)(C#N)C#N	0.577 ± 0.032	0.584 ± 0.032	0.605 ± 0.033	0.611 ± 0.033	0.626 ± 0.033	–	–	–	–	–	–	–
COC(C)(C)C [2-methoxy-2-methylpropane] + CCn1cc[n+](C)c1.N#C[B-](C#N)(C#N)C#N	2.77 ± 0.14	2.8 ± 0.14	2.85 ± 0.15	2.9 ± 0.15	2.95 ± 0.15	–	–	–	–	–	–	–
COC(C)=O [methyl ethanoate] + CCn1cc[n+](C)c1.N#C[B-](C#N)(C#N)C#N	0.653 ± 0.034	0.662 ± 0.034	0.682 ± 0.034	0.7 ± 0.035	0.723 ± 0.036	–	–	–	–	–	–	–
ClC(Cl)(Cl)Cl [tetrachloromethane] + CCn1cc[n+](C)c1.N#C[B-](C#N)(C#N)C#N	3.56 ± 0.18	3.56 ± 0.18	3.55 ± 0.18	3.54 ± 0.18	3.53 ± 0.18	–	–	–	–	–	–	–
ClCCl [dichloromethane] + CCn1cc[n+](C)c1.N#C[B-](C#N)(C#N)C#N	0.656 ± 0.034	0.665 ± 0.034	0.682 ± 0.034	0.698 ± 0.035	0.714 ± 0.035	–	–	–	–	–	–	–
ClC(Cl)Cl [trichloromethane] + CCn1cc[n+](C)c1.N#C[B-](C#N)(C#N)C#N	0.812 ± 0.038	0.829 ± 0.038	0.863 ± 0.039	0.895 ± 0.04	0.926 ± 0.041	–	–	–	–	–	–	–
C1CCOC1 [tetrahydrofuran] + CCn1cc[n+](C)c1.N#C[B-](C#N)(C#N)C#N	0.699 ± 0.035	0.709 ± 0.035	0.727 ± 0.036	0.744 ± 0.036	0.761 ± 0.037	–	–	–	–	–	–	–
C[N+](=O)[O-] [nitromethane] + CCn1cc[n+](C)c1.N#C[B-](C#N)(C#N)C#N	0.419 ± 0.029	0.421 ± 0.029	0.423 ± 0.029	0.426 ± 0.029	0.429 ± 0.029	–	–	–	–	–	–	–
CC#N [acetonitrile] + CCn1cc[n+](C)c1.N#C[B-](C#N)(C#N)C#N	0.428 ± 0.029	0.43 ± 0.029	0.43 ± 0.029	0.431 ± 0.029	0.432 ± 0.029	–	–	–	–	–	–	–
C1CCCCC1 [cyclohexane] + CCn1cc[n+](C)c1.N#C[B-](C#N)(C#N)C#N	13.8 ± 0.7	13.4 ± 0.7	12.5 ± 0.6	11.8 ± 0.6	11.1 ± 0.6	–	–	–	–	–	–	–
COCCOC [1,2-dimethoxyethane] + CCn1cc[n+](C)c1.N#C[B-](C#N)(C#N)C#N	0.452 ± 0.03	0.47 ± 0.03	0.505 ± 0.031	0.539 ± 0.031	0.574 ± 0.032	–	–	–	–	–	–	–
